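Step 1: Grow cells in 96-well plates. Step 2: Expose to compound for 48 hours at 5 concentrations. Step 3: Interpolate endpoints linearly; if unreached, use highest concentration. GI50 is the concentration that inhibits growth by half. TGI is the concentration that stops growth completely.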
Key:
Assay in all cases: NCI tumour cell line growth inhibition, 48 h
[1] = system: SF-295 CNS
[2] = system: SK-MEL-2 melanoma
[3] = system: HL-60(TB) leukemia
[4] = system: SK-OV-3 ovarian
[5] = system: 786-0 renal
[6] = system: U251 CNS
[7] = system: NCI-H460 lung
[8] = system: NCI-H23 lung
[9] = system: UACC-257 melanoma
[10] = system: MDA-MB-231 breast

Row | SMILES | TGI [1] | TGI [2] | TGI [3] | TGI [4] | TGI [5] | TGI [6] | TGI [7] | TGI [8] | TGI [9] | GI50 [1] | GI50 [3] | GI50 [4] | GI50 [5] | GI50 [6] | GI50 [7] | GI50 [8] | GI50 [9] | GI50 [10] | TGI [10] | GI50 [2]
1 | O=C(O)c1c(-c2cccc3ccccc23)sc(-c2cccc3ccccc23)c1C(=O)O | > 100 µM | > 100 µM | > 100 µM | > 100 µM | > 100 µM | > 100 µM | > 100 µM | > 100 µM | > 100 µM |  |  |  |  |  |  |  |  |  |  | 
2 | O=C(c1ccccc1)C(C(=O)c1ccccc1)C1(O)C(=O)c2ccccc2C1=O | > 100 µM | > 100 µM | 46.9 µM | > 100 µM | > 100 µM | > 100 µM |  | 84.6 µM | > 100 µM |  |  |  |  |  |  |  |  |  |  | 
3 | COc1cc(C2C=C(c3cccc(NC(C)=O)c3)Nc3ncnn32)cc(OC)c1OC (stereo unspecified) | > 32.8 µM |  | 2.28 µM | > 100 µM | > 100 µM | > 100 µM | > 100 µM | > 100 µM | > 100 µM | 0.229 µM | 0.443 µM | 0.903 µM | 0.615 µM | 0.395 µM | 2.14 µM | 0.468 µM | > 92.5 µM | 2.11 µM | > 55.9 µM | 
4 | CCOC(=O)C(=O)Nc1nc2c(s1)C(=O)c1ccccc1C2=O |  | 31.7 µM |  |  | 31.2 µM | 31 µM | 45.8 µM | 27.6 µM | 31.4 µM |  |  |  |  |  |  |  |  |  |  | 
5 | N#CCC1COc2ccccc2O1 (stereo unspecified) | > 10 µM |  | > 10 µM | > 10 µM | > 10 µM | > 10 µM |  | > 10 µM | > 10 µM |  |  |  |  |  |  |  |  |  | > 10 µM | 
6 | O=C(c1ccccc1)C(c1ccccc1)C1(O)C(=O)Nc2c(Cl)cc(Cl)cc21 (stereo unspecified) | 33.1 µM | 33 µM | 39.5 µM | 70.1 µM | 29.8 µM | 96.6 µM | > 100 µM | 35.5 µM | 35 µM |  |  |  |  |  |  |  |  |  |  | 
7 | CCC[CH2][Sn-]([CH2]CCC)([CH2]CCC)[O]c1cc(Cl)c(Cl)cc1Cl | 0.732 µM | 1.86 µM | 0.167 µM | 0.379 µM | 0.318 µM | 0.35 µM | 0.344 µM | 1.17 µM |  | 0.263 µM | 0.0184 µM | 0.15 µM | 0.163 µM | 0.179 µM | 0.165 µM | 0.23 µM |  |  |  | 0.377 µM
8 | CCOC(=O)[C@@]1(C)C=C2O[C@@H]3OC4(CCCCC4)O[C@@H]3C2=C2C(O)=CC=C(O)[C@]21C(=O)OC | > 68 µM | > 68 µM | > 68 µM | > 68 µM | > 68 µM | > 68 µM | > 68 µM | > 68 µM | > 68 µM |  |  |  |  |  |  |  |  |  |  | 
9 | O=C(O)CSc1n[nH]c(-c2ccc(O)cc2)n1 | > 100 µM | > 100 µM | > 100 µM | > 100 µM | > 100 µM | > 100 µM | > 100 µM | > 100 µM | > 100 µM |  |  |  |  |  |  |  |  |  |  | 
10 | O=C(CNc1nncs1)NO | > 100 µM | > 100 µM | > 100 µM | > 100 µM | > 100 µM | > 100 µM | > 100 µM | > 100 µM | > 100 µM |  |  |  |  |  |  |  |  |  |  | 

— PubChem BioAssay (NCI)
